We go through 30 compounds from patent US12590062B2, “PD-1/PD-L1 inhibitors” (Gilead Sciences, Inc., priority 2017, dated 2026).

SMILES strings stand for the structures.

The term AC50 denotes the concentration at which the activity in the assay is half-maximal. As a reminder, the IC50 is the concentration needed to halve the response being measured. In general, EC50 refers to the midpoint of the concentration-response curve.

Assay [1] has as its target T1, PD-L1 (Homo sapiens, UniProt Q9NZQ7).
T1 construct: determine if they can specifically dimerize the extracellular domains of PD-L1
Put plainly: PD-L1/PD-L1 dimerization biochemical protein-protein interaction assay (ALPHA). The format is binding. Particulars: compound-induced PD-L1 dimerization, head prints '1 nM' (0.5 nM His-tagged PD-L1 and 0.5 nM FLAG-tagged PD-L1), read-out: AC50 PDL1 Dimer Alpha 1 nM. In short, it runs like this:
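ALPHA proximity assay of compound-induced dimerization of 0.5 nM His-tagged and 0.5 nM FLAG-tagged PD-L1 extracellular domains in Hepes pH 7.4 buffer, 2 h at 25 °C. Anti-His acceptor then anti-FLAG donor beads, 60 min each; AC50 from four-parameter fit.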

For assay [2], the target named is PD-1/PD-L1 (Homo sapiens, UniProt Q9NZQ7). Put plainly: PD-1/PD-L1 biochemical protein-protein interaction assay (ALPHA). Format: binding. Particulars: 0.3 nM His tagged PD-L1, 2.5 nM biotinylated Fc-PD-1, 60 minutes at 25° C., read-out: IC50 PD-L1-PD-1 Alpha IC50-mono PD-L1-fcP-D1. In short, it runs like this:
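Final concentrations 0.3 nM His-tagged PD-L1 and 2.5 nM biotinylated Fc-PD-1 (extracellular domains) were reacted with compound for 60 min at 25° C in pH 7.4 Hepes/NaCl/EDTA/Tween/BSA buffer. Binding was then detected by ALPHA beads, and IC50 values were taken from four-parameter curve fitting.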

For assay [3], the target named is T2, PD-1/PD-L1 interaction (Homo sapiens, UniProt Q9NZQ7).
T2 construct: expressed in transfected cells; host or cells: CHO cells (aAPC-PD-L1) co-cultured with Jurkat cells overexpressing PD-1 and an NFAT-luciferase reporter
T2 sequence (Q9NZQ7 19-290): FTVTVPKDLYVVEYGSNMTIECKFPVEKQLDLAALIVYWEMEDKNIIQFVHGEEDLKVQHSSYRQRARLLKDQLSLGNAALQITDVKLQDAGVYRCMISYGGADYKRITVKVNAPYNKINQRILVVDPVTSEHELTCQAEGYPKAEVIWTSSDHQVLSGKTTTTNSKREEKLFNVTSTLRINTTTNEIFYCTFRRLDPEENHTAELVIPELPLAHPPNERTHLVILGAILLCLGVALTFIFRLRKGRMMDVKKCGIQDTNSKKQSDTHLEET
Put plainly: PD-1/PD-L1 NFAT reporter co-culture assay. Format: cell-based. The note with it: Jurkat PD-1 NFAT-luciferase cells co-cultured with aAPC-PD-L1 CHO cells, 6 hrs at 37° C.; read-out: EC50 NFAT Luciferase. In short, it runs like this:
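First, CHO cells displaying anti-CD3 antibody and PD-L1 were plated overnight. Next, compound-treated PD-1 Jurkat NFAT-luciferase reporter cells in 2% FBS RPMI were added for 6 h at 37 °C. Finally, ONE-Glo luminescence was read and EC50 values fitted with a four-parameter equation.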

Chain of PD-1/PD-L1 (Q9NZQ7 19-238 limits assumed): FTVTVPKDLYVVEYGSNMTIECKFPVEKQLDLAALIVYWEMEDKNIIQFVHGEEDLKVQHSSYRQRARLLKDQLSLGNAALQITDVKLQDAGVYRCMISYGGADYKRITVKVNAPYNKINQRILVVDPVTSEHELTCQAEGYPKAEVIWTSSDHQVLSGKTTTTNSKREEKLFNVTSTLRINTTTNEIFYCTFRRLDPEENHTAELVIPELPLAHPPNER
T1 sequence (Q9NZQ7 19-238 limits assumed): as above
T1 sequence (Q9NZQ7 19-238 limits assumed): as above

Turning to `Cc1c(COc2cc(OCc3cncc(C#N)c3)c(CN[C@@](C)(CO)C(=O)O)cc2Cl)cccc1-c1cc(F)cc(-c2ccc(CN(C)C)cc2)c1Cl` [Example 457], in assay [1], the AC50 is 49.3 nM. In assay [2], the IC50 stood at 0.064 nM. In addition, in assay [3], the EC50 was found to be 1560 nM.

`CNC(=O)c1cc(-c2cccc(-c3cccc(COc4cc(OCc5cncc(C#N)c5)c(CNC[C@@H](O)CC(=O)O)cc4Cl)c3C)c2C)ccc1OCCNCCO` [Example 458]: the AC50 in assay [1] stood at 139 nM. In assay [2], the IC50 is 0.325 nM. The EC50 in assay [3] worked out at 429 nM.

In the case of `Cc1c(COc2cc(OCc3cncc(C#N)c3)c(CN[C@@](C)(CO)C(=O)O)cc2Cl)cccc1-c1cccc(-c2ccc(OCCNCCO)c(C(=O)NC3CC3)c2)c1C` [Example 459], the AC50 in assay [1] amounted to 89.9 nM. Moreover, in assay [2], the IC50 is 0.064 nM. Besides, the EC50 in assay [3] stood at 1200 nM.

In the case of `Cc1c(COc2cc(OCc3cncc(C#N)c3)c(CNC[C@@H](O)CC(=O)O)cc2Cl)cccc1-c1cccc(-c2ccc(CNC[C@@H](O)CC(=O)O)c(SC(F)F)c2)c1C` [Example 460], the AC50 in assay [1] is 302 nM. In assay [2], the IC50 was 0.147 nM. For the same compound, the EC50 in assay [3] came to 112 nM.

Take `Cc1c(COc2cc(OCc3cncc(C#N)c3)c(CNC[C@@H](O)CC(=O)O)cc2Cl)cccc1-c1cccc(-c2ccc(CNC[C@@H](O)CC(=O)O)c(OC(F)F)c2)c1C` [Example 461]: the AC50 in assay [1] came to 128 nM. In assay [2], the IC50 was determined as 0.064 nM. The EC50 in assay [3] was determined as 47 nM.

As to `N#CCOc1cc(-c2cccc(-c3cccc(-c4ccc(CNC[C@@H]5CCC(=O)N5)c(OCC#N)c4)c3Cl)c2Cl)ccc1CNC[C@@H]1CCC(=O)N1` [Example 463], the AC50 in assay [1] came out at 71.3 nM. Further, the IC50 in assay [2] came out at 0.159 nM. Moreover, the EC50 in assay [3] is 123 nM.

`Cc1c(COc2cc(OCc3cncc(C#N)c3)c(CNC[C@@H](O)CC(=O)O)cc2Cl)cccc1-c1cccc(-c2ccc(C3=NCCN3)c(OC(F)F)c2)c1C` [Example 464]: the AC50 in assay [1] was determined as 87.6 nM. Besides, in assay [2], the IC50 is 0.099 nM. The EC50 in assay [3] came to 152 nM.

`Cc1c(COc2cc(OCc3cncc(C#N)c3)c(CNC[C@@H](O)CC(=O)O)cc2Cl)cccc1-c1cccc(-c2ccc(C3=NCCN3)c(OCCCC#N)c2)c1C` [Example 465]: the AC50 in assay [1] stood at 84.8 nM. Also, the IC50 in assay [2] was 0.116 nM. For the same compound, the EC50 in assay [3] worked out at 193 nM.

In the case of `Cc1c(COc2cc(OCc3cncc(C#N)c3)c(CNC[C@@H](O)CC(=O)O)cc2Cl)cccc1-c1cccc(-c2ccc(C3=NCCN3)c(OCCCC#N)n2)c1C` [Example 466], in assay [1], the AC50 was found to be 44.1 nM. In addition, the IC50 in assay [2] came to 0.064 nM. Further, the EC50 in assay [3] was determined as 93 nM.

For `Cc1c(COc2cc(OCc3cc(S(C)(=O)=O)cc(S(C)(=O)=O)c3)c(CN[C@@](C)(CO)C(=O)O)cc2Cl)cccc1-c1cccc(-c2ccc(CCCN3CC[C@@H](O)C3)cc2)c1C` [Example 467], the AC50 in assay [1] turned out to be 111 nM. Further, in assay [2], the IC50 was 0.161 nM. In assay [3], the EC50 worked out at 197 nM.

For `COc1ccc2cc(-c3cccc(-c4cccc(COc5cc(OCc6cncc(C#N)c6)c(CNC[C@@H](O)CC(=O)O)cc5Cl)c4C)c3C)ccc2c1CNC[C@@H](O)CC(=O)O` [Example 468], the AC50 in assay [1] is 131 nM. Also, the IC50 in assay [2] was 0.558 nM. In assay [3], the EC50 was 183 nM.

With `Cc1c(COc2cc(OCc3cncc(C#N)c3)c(CN[C@@](C)(CO)C(=O)O)cc2Cl)cccc1-c1cccc(-c2ccc3c(c2)ncc(=O)n3CCN(C)C)c1C` [Example 469], the AC50 in assay [1] is 73.5 nM. In addition, the IC50 in assay [2] was determined as 0.064 nM. Further, in assay [3], the EC50 was found to be 125 nM.

Consider `Cc1c(COc2cc(OCc3cncc(C(N)=O)c3)c(CN[C@@](C)(CO)C(=O)O)cc2Cl)cccc1-c1cccc(-c2ccc3c(c2)[C@@H](O)C[C@H]3N)c1C` [Example 470], for which, in assay [1], the AC50 was found to be 127 nM. Besides, in assay [2], the IC50 is 0.096 nM. Besides, the EC50 in assay [3] stood at 217 nM.

As to `Cc1c(COc2nc(OCc3cc(C#N)cc(C#N)c3)c(CNC(C)(CO)C(=O)O)cc2Cl)cccc1-c1cccc(-c2ccc(OCCNCCO)cc2)c1C` (stereo not drawn) [Example 471], the AC50 in assay [1] is 80 nM. For the same compound, the IC50 in assay [2] is 0.205 nM. In addition, the EC50 in assay [3] was determined as 144 nM.

For the compound `Cc1c(COc2cc(OCc3cncc(C#N)c3)c(CNC[C@@H](O)CC(=O)O)cc2Cl)cccc1-c1cccc(-c2ccc3c(c2)CC(NCCO)C3)c1C` (stereo partly drawn) [Example 473], in assay [1], the AC50 is 76.8 nM. Moreover, in assay [2], the IC50 came out at 0.159 nM. The EC50 in assay [3] is 86 nM.

As to `Cc1c(COc2cc(OCc3cncc(C#N)c3)c(CNC[C@@H](O)CC(=O)O)cc2Cl)cccc1-c1cccc(-c2ccc3c(c2)CC(NCC(=O)O)C3)c1C` (stereo partly drawn) [Example 474], the AC50 in assay [1] stood at 137 nM. In assay [2], the IC50 was 0.064 nM. Also, in assay [3], the EC50 came to 59 nM.

Consider `Cc1c(COc2cc(OCc3cncc(C#N)c3)c(CN[C@@](C)(CO)C(=O)O)cc2Cl)cccc1-c1cccc(-c2ccc3c(cnn3CCN3CC[C@@H](O)C3)n2)c1C` [Example 475], for which the AC50 in assay [1] is 134 nM. The IC50 in assay [2] was found to be 0.088 nM. In addition, the EC50 in assay [3] was 117 nM.

Regarding `Cn1cc(CN2CC3(CCC(=O)N3)C2)c2ccc(-c3cccc(-c4cccc(-c5ccc6c(CN7CC8(CCC(=O)N8)C7)cn(C)c6n5)c4Cl)c3Cl)nc21` [Example 476], the AC50 in assay [1] worked out at 149 nM. Besides, the IC50 in assay [2] was 1.11 nM. Besides, the EC50 in assay [3] stood at 196 nM.

`COc1cc(-c2cccc(-c3cccc(-c4ccc(CNC[C@@H]5CCC(=O)N5)c(OC)c4)c3Br)c2Br)ccc1CNC[C@@H]1CCC(=O)N1` [Example 477]: the AC50 in assay [1] is 360 nM. The IC50 in assay [2] came to 1.04 nM. Also, in assay [3], the EC50 is 179 nM.

`C[C@@](CO)(NCc1cc(Cl)c(OCc2cccc(-c3cccc(COc4cc(OCc5cncc(C#N)c5)c(CN[C@@](C)(CO)C(=O)O)cc4Cl)c3Br)c2Br)cc1OCc1cncc(C#N)c1)C(=O)O` [Example 478]: the AC50 in assay [1] came out at 268 nM. The IC50 in assay [2] was determined as 0.064 nM. Further, the EC50 in assay [3] was determined as 48 nM.

Consider `N#Cc1cncc(COc2cc(OCc3cccc(-c4cccc(COc5cc(OCc6cncc(C#N)c6)c(CNC[C@@H](O)CC(=O)O)cc5Cl)c4Br)c3Br)c(Cl)cc2CNC[C@@H](O)CC(=O)O)c1` [Example 479], for which, in assay [1], the AC50 amounted to 348 nM. For the same compound, the IC50 in assay [2] was found to be 0.098 nM. For the same compound, the EC50 in assay [3] was 45 nM.

Consider `Cc1c(COc2cc(OCc3cncc(C#N)c3)c(CNCCO)cc2Cl)cccc1-c1cccc(COc2cc(OCc3cncc(C#N)c3)c(CNCCO)cc2Cl)c1Br` [Example 480], for which, in assay [1], the half-maximal activity concentration (AC50) stood at 114 nM. Also, the IC50 in assay [2] was 1.12 nM. In addition, the EC50 in assay [3] is 147 nM.

`Cc1c(COc2cc(OCc3cncc(C#N)c3)c(CN[C@@](C)(CO)C(=O)O)cc2Cl)cccc1-c1cccc(COc2cc(OCc3cncc(C#N)c3)c(CN[C@@](C)(CO)C(=O)O)cc2Cl)c1Br` [Example 481]: the AC50 in assay [1] came to 92.9 nM. In addition, the IC50 in assay [2] was determined as 0.064 nM. In addition, in assay [3], the EC50 turned out to be 155 nM.

Consider `Cc1c(COc2cc(OCc3cncc(C#N)c3)c(CNC(C)(C)C(=O)O)cc2Cl)cccc1-c1cccc(-c2ccc(CN(C)C)cc2)c1Br` [Example 482], for which the AC50 in assay [1] was found to be 25.5 nM. The IC50 in assay [2] is 0.064 nM. The EC50 in assay [3] amounted to 47 nM.

With `Cc1c(COc2cc(OCc3cncc(C#N)c3)c(CN[C@@](C)(CO)C(=O)O)cc2Cl)cccc1-c1cccc(-c2ccc(CN(C)C)cc2)c1Br` [Example 483], the AC50 in assay [1] is 40.9 nM. The IC50 in assay [2] stood at 0.064 nM. In addition, in assay [3], the EC50 came to 69 nM.

For `Cc1c(COc2cc(OCc3cncc(C#N)c3)c(CNC[C@@H](O)CC(=O)O)cc2Cl)cccc1-c1cccc(-c2ccc(CN(C)C)cc2)c1Br` [Example 484], the AC50 in assay [1] was found to be 108 nM. Further, the IC50 in assay [2] was 0.205 nM. In addition, the EC50 in assay [3] came to 138 nM.

Consider `CS(=O)(=O)c1cncc(COc2nc(OCc3cccc(-c4cccc(-c5ccc(OCCNCCO)cc5)c4Cl)c3Cl)c(Cl)cc2CNC[C@@H](O)CC(=O)O)c1` [Example 485], for which the AC50 in assay [1] was 61.3 nM. Also, in assay [2], the IC50 came to 0.321 nM. Moreover, the concentration for a half-maximal effect (EC50) in assay [3] was determined as 200 nM.

Turning to `COc1nc(O[C@H]2CCc3c(-c4cccc(-c5cc(C)c(CNC[C@@H]6CCC(=O)N6)c(OC)n5)c4Cl)cccc32)c(Cl)cc1CN1CC(C(=O)O)C1` [Example 487], in assay [1], the AC50 amounted to 25.2 nM. Moreover, the IC50 in assay [2] was found to be 0.064 nM. Also, in assay [3], the EC50 was 16 nM.

For the compound `COc1nc(O[C@H]2CCc3c(-c4cccc(-c5cc(C)c(CNC[C@@H]6CCC(=O)N6)c(OC)n5)c4Cl)cccc32)c(Cl)cc1CN1CC[C@@](C)(C(=O)O)C1` [Example 488], in assay [1], the AC50 was 25.6 nM. Besides, in assay [2], the IC50 was 0.064 nM. Besides, the EC50 in assay [3] came out at 26 nM.

As for `COc1nc(O[C@H]2CCc3c(-c4cccc(-c5cc(C)c(CNC[C@@H]6CCC(=O)N6)c(OC)n5)c4Cl)cccc32)c(Cl)cc1CN1CC[C@](C)(C(=O)O)C1` [Example 489], the AC50 in assay [1] came to 18.3 nM. Moreover, the IC50 in assay [2] was 0.064 nM. In addition, the EC50 in assay [3] is 18 nM.
